Reference: PubChem BioAssay (NCI)
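Cells were grown in 96-well plates and exposed to each compound for 48 hours at five concentrations; endpoints were interpolated linearly between bracketing concentrations, or set to the highest concentration if not reached. At the GI50, growth is halved. The concentration for full growth arrest is given as TGI.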

Assays:
Experiment in all cases: inhibition of tumour cell growth, NCI panel, 48 h
[1] = test system: 786-0 renal
[2] = test system: A498 renal
[3] = test system: A549 NSCLC
[4] = test system: ACHN renal
[5] = test system: BT-549 breast
[6] = test system: CAKI-1 renal
[7] = test system: CCRF-CEM leukemia
[8] = test system: COLO 205 colon
[9] = test system: DU-145 prostate
[10] = test system: EKVX NSCLC
[11] = test system: HCC-2998 colon
[12] = test system: HCT-116 colon
[13] = test system: HCT-15 colon
[14] = test system: HL-60(TB) leukemia
[15] = test system: HOP-62 NSCLC
[16] = test system: HOP-92 NSCLC
[17] = test system: HS 578T breast
[18] = test system: HT29 colon
[19] = test system: IGROV1 ovarian
[20] = test system: K-562 leukemia
[21] = test system: KM12 colon
[22] = test system: LOX IMVI melanoma
[23] = test system: M14 melanoma
[24] = test system: MALME-3M melanoma
[25] = test system: MCF7 breast
[26] = test system: MDA-MB-231 breast
[27] = test system: MDA-MB-435
[28] = test system: MOLT-4 leukemia
[29] = test system: NCI-H226 lung
[30] = test system: NCI-H23 lung
[31] = test system: NCI-H460 lung
[32] = test system: NCI-H522 lung
[33] = test system: NCI/ADR-RES ovarian
[34] = test system: OVCAR-3 ovarian
[35] = test system: OVCAR-4 ovarian
[36] = test system: OVCAR-5 ovarian
[37] = test system: OVCAR-8 ovarian
[38] = test system: PC-3 prostate
[39] = test system: RPMI-8226 leukemia
[40] = test system: RXF 393 renal
[41] = test system: SF-268 CNS
[42] = test system: SF-295 CNS
[43] = test system: SF-539 CNS
[44] = test system: SK-MEL-2 melanoma
[45] = test system: SK-MEL-5 melanoma
[46] = test system: SK-OV-3 ovarian
[47] = test system: SN12C renal
[48] = test system: SNB-19 CNS
[49] = test system: SNB-75 CNS
[50] = test system: SR leukemia
[51] = test system: SW-620 colon
[52] = test system: T-47D breast
[53] = test system: TK-10 renal
[54] = test system: U251 CNS
[55] = test system: UACC-257 melanoma
[56] = test system: UACC-62 melanoma
[57] = test system: UO-31 renal
[58] = test system: SK-MEL-28 melanoma

O=[N+]([O-])c1ccc(C2Nn3c(nnc3-c3cccc([N+](=O)[O-])c3)S2)cc1 (stereo not given)
TGI [1]: > 100 µM | TGI [2]: > 100 µM | TGI [3]: > 100 µM | TGI [4]: > 100 µM | TGI [5]: > 100 µM | TGI [6]: > 100 µM | TGI [7]: > 100 µM | TGI [8]: > 100 µM | TGI [9]: > 100 µM | TGI [10]: > 100 µM | TGI [11]: > 100 µM | TGI [12]: > 100 µM | TGI [13]: > 100 µM | TGI [14]: > 100 µM | TGI [15]: > 100 µM | TGI [16]: > 100 µM | TGI [17]: > 100 µM | TGI [18]: > 100 µM | TGI [19]: > 100 µM | TGI [20]: > 100 µM | TGI [21]: > 100 µM | TGI [22]: > 100 µM | TGI [23]: > 100 µM | TGI [24]: > 100 µM | TGI [25]: > 100 µM | TGI [26]: > 100 µM | TGI [27]: > 100 µM | TGI [28]: > 100 µM | TGI [29]: > 100 µM | TGI [30]: > 100 µM | TGI [31]: > 100 µM | TGI [32]: > 100 µM | TGI [33]: > 100 µM | TGI [34]: > 100 µM | TGI [35]: > 100 µM | TGI [36]: > 100 µM | TGI [37]: > 100 µM | TGI [38]: > 100 µM | TGI [39]: > 100 µM | TGI [40]: > 100 µM | TGI [41]: > 100 µM | TGI [42]: > 100 µM | TGI [43]: > 100 µM | TGI [44]: > 100 µM | TGI [45]: > 100 µM | TGI [46]: > 100 µM | TGI [47]: > 100 µM | TGI [48]: > 100 µM | TGI [49]: > 100 µM | TGI [50]: > 100 µM | TGI [51]: > 100 µM | TGI [52]: > 100 µM | TGI [53]: > 100 µM | TGI [54]: > 100 µM | TGI [55]: > 100 µM | TGI [56]: > 100 µM | TGI [57]: > 100 µM

CCN(CC)Cc1cc(Nc2ccnc3ccc(OC)cc23)ccc1O
GI50 [1]: 4.67 µM | TGI [1]: 18.8 µM | GI50 [2]: 2.75 µM | TGI [2]: 12.5 µM | GI50 [3]: 4.37 µM | TGI [3]: 18.1 µM | GI50 [4]: 2.82 µM | TGI [4]: 9.5 µM | GI50 [5]: 9.53 µM | TGI [5]: 27.9 µM | GI50 [6]: 1.48 µM | TGI [6]: 4.1 µM | GI50 [8]: 1.63 µM | TGI [8]: 3.67 µM | GI50 [9]: 3.93 µM | TGI [9]: 16.8 µM | GI50 [10]: 5.16 µM | TGI [10]: 38.8 µM | GI50 [11]: 2.35 µM | TGI [11]: 7.1 µM | GI50 [12]: 2.62 µM | TGI [12]: 15 µM | GI50 [13]: 3.56 µM | TGI [13]: 34 µM | GI50 [14]: 1.94 µM | TGI [14]: 8.83 µM | GI50 [15]: 3.8 µM | TGI [15]: 18.4 µM | GI50 [16]: 2.04 µM | TGI [16]: 7.13 µM | GI50 [17]: 9.35 µM | TGI [17]: 30.6 µM | GI50 [18]: 1.81 µM | TGI [18]: 4.45 µM | GI50 [21]: 3.21 µM | TGI [21]: 16 µM | GI50 [22]: 2.36 µM | TGI [22]: 6.48 µM | GI50 [23]: 2.88 µM | TGI [23]: 10.1 µM | GI50 [24]: 3.85 µM | TGI [24]: 15.7 µM | GI50 [25]: 2.71 µM | TGI [25]: 9.62 µM | GI50 [26]: 4.76 µM | TGI [26]: 31.2 µM | GI50 [27]: 3.08 µM | TGI [27]: 12.3 µM | GI50 [28]: 2.98 µM | TGI [28]: 16.8 µM | GI50 [29]: 4.15 µM | TGI [29]: 21.7 µM | GI50 [30]: 7.46 µM | TGI [30]: 26.5 µM | GI50 [31]: 3.28 µM | TGI [31]: 10.4 µM | GI50 [32]: 2.21 µM | TGI [32]: 5.61 µM | GI50 [33]: 4.87 µM | TGI [33]: 28.8 µM | GI50 [34]: 3.2 µM | TGI [34]: 20.4 µM | GI50 [35]: 2.54 µM | TGI [35]: 11.6 µM | GI50 [36]: 3.95 µM | TGI [36]: 28 µM | GI50 [37]: 7.21 µM | TGI [37]: 34.5 µM | GI50 [38]: 4.49 µM | TGI [38]: 31.6 µM | GI50 [39]: 3.97 µM | TGI [39]: 15.1 µM | GI50 [40]: 2.79 µM | TGI [40]: 10.9 µM | GI50 [41]: 3.61 µM | TGI [41]: 19.8 µM | GI50 [42]: 2.39 µM | TGI [42]: 7.64 µM | GI50 [43]: 2.17 µM | TGI [43]: 4.84 µM | GI50 [44]: 2.94 µM | TGI [44]: 5.5 µM | GI50 [58]: 3.4 µM | TGI [58]: 10.4 µM | GI50 [45]: 2.46 µM | TGI [45]: 6.31 µM | GI50 [46]: 7.15 µM | TGI [46]: 34.5 µM | GI50 [47]: 3.57 µM | TGI [47]: 20.6 µM | GI50 [48]: 8.4 µM | TGI [48]: > 100 µM | GI50 [49]: 4.88 µM | TGI [49]: 18.8 µM | GI50 [50]: 2.85 µM | TGI [50]: 7.77 µM | GI50 [51]: 3.6 µM | TGI [51]: 19.7 µM | GI50 [52]: 5.69 µM | TGI [52]: 44.7 µM | GI50 [53]: 3.1 µM | TGI [53]: 8.43 µM | GI50 [54]: 4.46 µM | TGI [54]: 17.9 µM | GI50 [56]: 5.78 µM | TGI [56]: 20.9 µM | GI50 [57]: 1.84 µM | TGI [57]: 5.96 µM
